Measured values reported in patent publication US20240158446A1, “CYCLIC COMPOUND HAVING SELECTIVE INHIBITORY ACTION ON KRAS OVER HRAS AND NRAS” (CHUGAI SEIYAKU KABUSHIKI KAISHA, priority 2021, published 2024).

Assays:
[1] = target: GDP-bound KRAS wild-type protein (Homo sapiens, UniProt P01116); test: Binding to KRAS by surface plasmon resonance (SPR), Single Cycle Kinetics; conditions: SPR, Single Cycle Kinetics, GDP-bound KRAS wild-type protein; read-out: KRAS KD
[2] = target: GDP-bound NRAS wild-type protein (Homo sapiens, UniProt P01111); test: Binding to NRAS by surface plasmon resonance (SPR), Single Cycle Kinetics; conditions: ratio of KD for GDP-bound NRAS wild-type protein to KD for KRAS, SPR
[3] = target: GDP-bound HRAS wild-type protein (Homo sapiens, UniProt P01112); test: Binding to HRAS by surface plasmon resonance (SPR), Single Cycle Kinetics; conditions: ratio of KD for GDP-bound HRAS wild-type protein to KD for KRAS, SPR
[4] = test system: human lung cancer strain NCI-H441; test: cells; conditions: NCI-H441, 96 h, read-out: NCI-H441 IC50 (nM), NCI-H441 cell proliferation, 4 days, CellTiter-Glo;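 also: cell proliferation inhibition after four days measured by CellTiter-Glo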

Chain of GDP-bound NRAS wild-type protein (P01111 whole entry): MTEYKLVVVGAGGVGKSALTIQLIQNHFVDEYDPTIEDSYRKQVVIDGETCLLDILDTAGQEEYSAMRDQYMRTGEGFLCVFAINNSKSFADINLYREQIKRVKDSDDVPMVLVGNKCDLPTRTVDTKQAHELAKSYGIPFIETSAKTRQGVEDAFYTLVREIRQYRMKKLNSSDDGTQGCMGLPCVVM
Chain of GDP-bound HRAS wild-type protein (P01112 whole entry): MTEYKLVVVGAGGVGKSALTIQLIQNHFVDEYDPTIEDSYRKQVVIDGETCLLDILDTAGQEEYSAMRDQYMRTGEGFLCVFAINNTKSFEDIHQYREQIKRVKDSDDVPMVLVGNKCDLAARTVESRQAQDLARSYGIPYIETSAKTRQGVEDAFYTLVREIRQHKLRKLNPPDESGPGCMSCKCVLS
Chain of GDP-bound KRAS wild-type protein (P01116 whole entry): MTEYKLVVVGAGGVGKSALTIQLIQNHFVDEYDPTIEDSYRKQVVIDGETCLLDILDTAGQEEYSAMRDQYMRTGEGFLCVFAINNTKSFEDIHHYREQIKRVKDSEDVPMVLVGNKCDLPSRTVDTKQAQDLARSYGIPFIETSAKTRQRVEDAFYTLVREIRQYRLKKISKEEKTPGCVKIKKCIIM

Compound: CCO[C@@H]1C[C@H]2C(=O)NC3(CC(C)(C)C3)C(=O)N(C)[C@@H](C3CCCC3)C(=O)N(C)[C@H](C(=O)N(C)CC)CC(=O)N(C)[C@@H](C3CC3)C(=O)N[C@@H]([C@@H](C)CC)C(=O)N(C)CC(=O)N(C)[C@H]3C/C=C\CCN(C3=O)[C@@H](Cc3ccc(C(F)(F)F)cc3)C(=O)N(C)CC(=O)N[C@@H](CCc3ccc(C(F)(F)F)c(OC)c3)C(=O)N2C1 [PP1981]
- Kd [1]: 0.1 nM
- NRAS/KRAS (KD ratio) [2]: A (a compound having 10 or more and less than 20 is denoted as A)
- HRAS/KRAS (KD ratio) [3]: A (a compound having 10 or more and less than 20 is denoted as A)
- IC50 [4]: 20.7 nM

Compound: CCCN(C)C(=O)[C@@H]1CC(=O)N(C)[C@@H](C2CC2)C(=O)N[C@@H]([C@@H](C)CC)C(=O)N(C)CC(=O)N(C)[C@H]2C/C=C\CCN(C2=O)[C@@H](Cc2ccc(C(F)(F)F)cc2)C(=O)N(C)CC(=O)N[C@@H](CCc2ccc(C(F)(F)F)c(OC)c2)C(=O)N2C[C@H](OCC)C[C@H]2C(=O)NC2(CC(C)(C)C2)C(=O)N(C)[C@@H](C2CCCC2)C(=O)N1C [PP1983]
- Kd [1]: 0.14 nM
- NRAS/KRAS (KD ratio) [2]: AA (a compound having 20 or more is denoted as AA)
- HRAS/KRAS (KD ratio) [3]: A (a compound having 10 or more and less than 20 is denoted as A)
- IC50 [4]: 20.2 nM

Compound: CC[C@H](C)[C@@H]1NC(=O)[C@H](C2CCC2)N(C)C(=O)C[C@@H](C(=O)N(C)CC)N(C)C(=O)[C@H](C2CCCC2)N(C)C(=O)C2(CC(C)(C)C2)NC(=O)[C@@H]2C[C@H](C)CN2C(=O)[C@H](CCc2cc(F)c(C(F)(F)F)c(F)c2)NC(=O)CN(C)C(=O)[C@H](Cc2ccc(C(F)(F)F)cc2)N2CC/C=C\C[C@@H](C2=O)N(C)C(=O)CN(C)C1=O [PP1984]
- Kd [1]: 0.3 nM
- NRAS/KRAS (KD ratio) [2]: A (a compound having 10 or more and less than 20 is denoted as A)
- HRAS/KRAS (KD ratio) [3]: A (a compound having 10 or more and less than 20 is denoted as A)
- IC50 [4]: 50.8 nM

Compound: CCO[C@@H]1C[C@H]2C(=O)NC3(CC(C)(C)C3)C(=O)N(C)[C@@H](C3CCCC3)C(=O)N(C)[C@H](C(=O)N(C)C)CC(=O)N(C)[C@@H](C3CCC3)C(=O)N[C@@H]([C@@H](C)CC)C(=O)N(C)CC(=O)N(C)[C@H]3C/C=C\CCN(C3=O)[C@@H](Cc3ccc(C(F)(F)F)cc3)C(=O)N(C)CC(=O)N[C@@H](CCc3ccc(C(F)(F)F)c(OC)c3)C(=O)N2C1 [PP1987]
- Kd [1]: 0.053 nM
- NRAS/KRAS (KD ratio) [2]: A (a compound having 10 or more and less than 20 is denoted as A)
- HRAS/KRAS (KD ratio) [3]: A (a compound having 10 or more and less than 20 is denoted as A)
- IC50 [4]: 6.6 nM

Compound: CCCN(C)C(=O)[C@@H]1CC(=O)N(C)[C@@H](COCC)C(=O)N[C@@H]([C@@H](C)CC)C(=O)N(C)CC(=O)N(C)[C@H]2C/C=C\CCN(C2=O)[C@@H](Cc2ccc(C(F)(F)F)cc2)C(=O)N(C)CC(=O)N[C@@H](CCc2cc(F)c(C(F)(F)F)c(F)c2)C(=O)N2C[C@H](OCC)C[C@H]2C(=O)NC2(CCC2)C(=O)N(C)[C@@H](C2CCCC2)C(=O)N1C [PP1988]
- Kd [1]: 0.06 nM
- NRAS/KRAS (KD ratio) [2]: A (a compound having 10 or more and less than 20 is denoted as A)
- HRAS/KRAS (KD ratio) [3]: A (a compound having 10 or more and less than 20 is denoted as A)
- IC50 [4]: 11 nM

Compound: CCCN(C)C(=O)[C@@H]1CC(=O)N(C)[C@@H](CC(F)F)C(=O)N[C@@H]([C@@H](C)CC)C(=O)N(C)CC(=O)N(C)[C@H]2C/C=C\CCN(C2=O)[C@@H](Cc2ccc(C(F)(F)F)cc2)C(=O)N(C)CC(=O)N[C@@H](CCc2ccc(C(F)(F)F)c(OC)c2)C(=O)N2C[C@@H](C)C[C@H]2C(=O)NC2(CC(C)(C)C2)C(=O)N(C)[C@@H](C2CCCC2)C(=O)N1C [PP1989]
- Kd [1]: 0.19 nM
- NRAS/KRAS (KD ratio) [2]: A (a compound having 10 or more and less than 20 is denoted as A)
- HRAS/KRAS (KD ratio) [3]: A (a compound having 10 or more and less than 20 is denoted as A)
- IC50 [4]: 11.1 nM

Compound: CCO[C@@H]1C[C@H]2C(=O)NC3(CCC3)C(=O)N(C)[C@@H](C3CCCC3)C(=O)N(C)[C@H](C(=O)N(C)CC)CC(=O)N(C)[C@@H](C(C)C)C(=O)N[C@@H]([C@@H](C)CC)C(=O)N(C)CC(=O)N(C)[C@H]3C/C=C\CCN(C3=O)[C@@H](Cc3ccc(C(F)(F)F)cc3)C(=O)N(C)CC(=O)N[C@@H](CCc3cc(F)c(C(F)(F)F)c(F)c3)C(=O)N2C1 [PP1990]
- Kd [1]: 0.14 nM
- NRAS/KRAS (KD ratio) [2]: A (a compound having 10 or more and less than 20 is denoted as A)
- HRAS/KRAS (KD ratio) [3]: A (a compound having 10 or more and less than 20 is denoted as A)
- IC50 [4]: 6.6 nM

Compound: CCCN(C)C(=O)[C@@H]1CC(=O)N(C)[C@@H](COCC)C(=O)N[C@@H]([C@@H](C)CC)C(=O)N(C)CC(=O)N(C)[C@H]2C/C=C\CCN(C2=O)[C@@H](Cc2ccc(C(F)(F)F)cc2)C(=O)N(C)CC(=O)N[C@@H](CCc2ccc(C(F)(F)F)c(OC)c2)C(=O)N2C[C@@H](C)C[C@H]2C(=O)NC2(CC(C)(C)C2)C(=O)N(C)[C@@H](C2CCCC2)C(=O)N1C [PP1991]
- Kd [1]: 0.15 nM
- NRAS/KRAS (KD ratio) [2]: A (a compound having 10 or more and less than 20 is denoted as A)
- HRAS/KRAS (KD ratio) [3]: A (a compound having 10 or more and less than 20 is denoted as A)
- IC50 [4]: 10.8 nM

Compound: CCCN(C)C(=O)[C@@H]1CC(=O)N(C)[C@@H](C(C)C)C(=O)N[C@@H]([C@@H](C)CC)C(=O)N(C)CC(=O)N(C)[C@H]2C/C=C\CCN(C2=O)[C@@H](Cc2ccc(C(F)(F)F)cc2)C(=O)N(C)CC(=O)N[C@@H](CCc2cc(F)c(C(F)(F)F)c(F)c2)C(=O)N2C[C@H](OCC)C[C@H]2C(=O)NC2(CCC2)C(=O)N(C)[C@@H](C2CCCC2)C(=O)N1C [PP1992]
- Kd [1]: 0.21 nM
- NRAS/KRAS (KD ratio) [2]: AA (a compound having 20 or more is denoted as AA)
- HRAS/KRAS (KD ratio) [3]: B (a compound having 3 or more and less than 10 is denoted as B)
- IC50 [4]: 17.7 nM

Compound: CCOC[C@H]1C(=O)N[C@@H]([C@@H](C)CC)C(=O)N(C)CC(=O)N(C)[C@H]2C/C=C\CCN(C2=O)[C@@H](Cc2ccc(C(F)(F)F)cc2)C(=O)N(C)CC(=O)N[C@@H](CCc2ccc(C(F)(F)F)c(OC)c2)C(=O)N2C[C@@H](C)C[C@H]2C(=O)NC2(CC(C)(C)C2)C(=O)N(C)[C@@H](C2CCCC2)C(=O)N(C)[C@H](C(=O)N(C)CC)CC(=O)N1C [PP1993]
- Kd [1]: 0.12 nM
- NRAS/KRAS (KD ratio) [2]: A (a compound having 10 or more and less than 20 is denoted as A)
- HRAS/KRAS (KD ratio) [3]: A (a compound having 10 or more and less than 20 is denoted as A)
- IC50 [4]: 13.3 nM

Compound: CCCN(C)C(=O)[C@@H]1CC(=O)N(C)[C@@H](C2CC2)C(=O)N[C@@H]([C@@H](C)CC)C(=O)N(C)CC(=O)N(C)[C@H]2C/C=C\CCN(C2=O)[C@@H](Cc2ccc(C(F)(F)F)cc2)C(=O)N(C)CC(=O)N[C@@H](CCc2cc(F)c(C(F)(F)F)c(F)c2)C(=O)N2C[C@H](OCC)C[C@H]2C(=O)NC2(CCC2)C(=O)N(C)[C@@H](C2CCCC2)C(=O)N1C [PP1994]
- Kd [1]: 0.1 nM
- NRAS/KRAS (KD ratio) [2]: AA (a compound having 20 or more is denoted as AA)
- HRAS/KRAS (KD ratio) [3]: A (a compound having 10 or more and less than 20 is denoted as A)
- IC50 [4]: 22.4 nM

Compound: CCCOC[C@H]1C(=O)N[C@@H]([C@@H](C)CC)C(=O)N(C)CC(=O)N(C)[C@H]2C/C=C\CCN(C2=O)[C@@H](Cc2ccc(C(F)(F)F)cc2)C(=O)N(C)CC(=O)N[C@@H](CCc2ccc(C(F)(F)F)c(OC)c2)C(=O)N2C[C@@H](C)C[C@H]2C(=O)NC2(CC(C)(C)C2)C(=O)N(C)[C@@H](C2CCCC2)C(=O)N(C)[C@H](C(=O)N(C)CC)CC(=O)N1C [PP1995]
- Kd [1]: 0.21 nM
- NRAS/KRAS (KD ratio) [2]: A (a compound having 10 or more and less than 20 is denoted as A)
- HRAS/KRAS (KD ratio) [3]: B (a compound having 3 or more and less than 10 is denoted as B)
- IC50 [4]: 17.8 nM

Compound: CCO[C@@H]1C[C@H]2C(=O)NC3(CCC3)C(=O)N(C)[C@@H](C3CCCC3)C(=O)N(C)[C@H](C(=O)N(C)CC)CC(=O)N(C)[C@@H](C3CCC3)C(=O)N[C@@H]([C@@H](C)CC)C(=O)N(C)CC(=O)N(C)[C@H]3C/C=C\CCN(C3=O)[C@@H](Cc3ccc(C(F)(F)F)cc3)C(=O)N(C)CC(=O)N[C@@H](CCc3cc(F)c(C(F)(F)F)c(F)c3)C(=O)N2C1 [PP1996]
- Kd [1]: 0.12 nM
- NRAS/KRAS (KD ratio) [2]: A (a compound having 10 or more and less than 20 is denoted as A)
- HRAS/KRAS (KD ratio) [3]: B (a compound having 3 or more and less than 10 is denoted as B)
- IC50 [4]: 15.5 nM

Compound: CC[C@H](C)[C@@H]1NC(=O)[C@H](CCOC)N(C)C(=O)C[C@@H](C(=O)N(C)CC)N(C)C(=O)[C@H](C2CCCC2)N(C)C(=O)C2(CC(C)(C)C2)NC(=O)[C@@H]2C[C@H](C)CN2C(=O)[C@H](CCc2ccc(C(F)(F)F)c(OC)c2)NC(=O)CN(C)C(=O)[C@H](Cc2ccc(C(F)(F)F)cc2)N2CC/C=C\C[C@@H](C2=O)N(C)C(=O)CN(C)C1=O [PP1999]
- Kd [1]: 0.13 nM
- NRAS/KRAS (KD ratio) [2]: A (a compound having 10 or more and less than 20 is denoted as A)
- HRAS/KRAS (KD ratio) [3]: B (a compound having 3 or more and less than 10 is denoted as B)
- IC50 [4]: 26.6 nM
